Test results taken from patent publication US9889157B2, “Phosphate-binding magnesium salts and uses thereof” (Cypress Pharmaceuticals, Inc., priority 2009, dated 2018).
Values belong to the molecule of their own block, whether it stands above or below them.

Experiment: Phosphate-binding assay in phosphate-binding solution (PBS) simulating small intestinal fluid (SIF)
Procedure: Exemplary stock solutions suitable for phosphate-binding assays include the following: phosphate-binding solution (“PBS”) containing 10 mM KH2PO4, 30 mM Na2CO3, 80 mM NaCl, as described in Rosenbaum et al. Nephrol. Dial. Transplant. 12:961-964 (1997); acetate buffer (“AB”) solution containing 0.1N acetic acid, 0.025N sodium acetate, as described in Lowry & Lopez J. Biol. Chem. 162:421-428 (1946); ammonium molybdate (“AM”) solution containing 1% ammonium molybdate in 0.05N H2SO4, as described in Lowry & Lopez; ascorbic acid (“AA”) solution containing 1% ascorbic acid in H2O, as described in Lowry & Lopez.
In general, the phosphate-binding assay was conducted in 12×75 mm glass tubes. 4.0 mL PBS (which is a solution simulating SIF) and 20 mg putative phosphate binder were added to a glass tube and then mixed for 1 h at room temperature. 0.1 mL supernatant was pipetted from this tube to a new test tube. 3.0 mL AB, 0.3 mL AA and 0.3 mL AM solutions were added and O.D. were measured at 700 nm after 10 minutes.
The phosphate binding capacity was calculated as follows (mcg stands for micrograms): ((O.D. of sample×95)/O.D. of standard)×40=mcgPO4 left in solution ((3800−mcgPO4 left)×50)/1000=mgPO4 bound per gram of phosphate binder

[1] = Table 3, 20 mg binder in 4.0 mL PBS, 1 h, room temperature
[2] = Table 2, 20 mg binder in 4.0 mL PBS, 1 h, room temperature
[3] = Table 4, calculated from Table 3 and % Mg (or % Ca)

Molecule: N[C@@H](CC(=O)[O-])C(=O)[O-].[Mg+2] [Mg aspartate, magnesium aspartate]
PO4 binding [1]: 50 mg/g

Molecule: O=C([O-])[O-].[Mg+2] [MgCO3, magnesium carbonate]
PO4 binding [2]: 19.0 mg/g
PO4 binding [1]: 22 mg/g

Molecule: magnesium betainate [Mg betainate]
PO4 binding [1]: 147 mg/g
mg PO4 bound per g Mg or Ca in compound [3]: 1547 mg PO4 per g Mg or Ca
mg PO4 bound per g compound (Table 4, taken from Table 3): 147 mg PO4 per g compound
mg PO4 bound per g Mg or Ca in compound (Table 5, additional results): 1484 mg PO4 per g Mg (or Ca)
mg PO4 bound per g compound (Table 5, additional results): 141 mg PO4 per g compound

Molecule: O=C([O-])C(O)C(O)C(=O)[O-].[Mg+2] (stereo not shown) [Mg tartrate, magnesium tartrate]
PO4 binding [1]: 28 mg/g

Molecule: [Cl-].[Cl-].[Mg+2] [Mg chloride, magnesium chloride]
PO4 binding [1]: 4 mg/g

Molecule: CCC(=O)[O-].CCC(=O)[O-].[Mg+2] [Mg propionate, magnesium propionate]
PO4 binding [1]: 59 mg/g

Molecule: [O]=[Mg] [MgO, magnesium oxide]
PO4 binding [2]: 184.0 mg/g
PO4 binding [1]: ≧190 mg/g
mg PO4 bound per g Mg or Ca in compound [3]: 315 mg PO4 per g Mg or Ca
mg PO4 bound per g compound (Table 4, taken from Table 3): 190 mg PO4 per g compound
mg PO4 bound per g Mg or Ca in compound (Table 5, additional results): 310 mg PO4 per g Mg (or Ca)
mg PO4 bound per g compound (Table 5, additional results): 187 mg PO4 per g compound

Molecule: magnesium arginate [Mg arginate]
PO4 binding [1]: 121 mg/g
mg PO4 bound per g Mg or Ca in compound [3]: 1862 mg PO4 per g Mg or Ca
mg PO4 bound per g compound (Table 4, taken from Table 3): 121 mg PO4 per g compound
mg PO4 bound per g Mg or Ca in compound (Table 5, additional results): 1815 mg PO4 per g Mg (or Ca)
mg PO4 bound per g compound (Table 5, additional results): 118 mg PO4 per g compound

Molecule: O=C([O-])CCCCC(=O)[O-].[Mg+2] [Mg adipate]
PO4 binding [1]: 6 mg/g

Molecule: O=C([O-])[O-].[Ca+2] [CaCO3, calcium carbonate, reference compound]
PO4 binding [2]: 10.9 mg/g

Molecule: NCC(=O)[O-].NCC(=O)[O-].[Mg+2] [Mg glycinate, magnesium glycinate]
PO4 binding [1]: 176 mg/g
mg PO4 bound per g Mg or Ca in compound [3]: 1248 mg PO4 per g Mg or Ca
mg PO4 bound per g compound (Table 4, taken from Table 3): 176 mg PO4 per g compound
mg PO4 bound per g Mg or Ca in compound (Table 5, additional results): 1255 mg PO4 per g Mg (or Ca)
mg PO4 bound per g compound (Table 5, additional results): 177 mg PO4 per g compound

Molecule: magnesium carnitinate [Mg carnitinate]
PO4 binding [1]: 169 mg/g

Molecule: O=C1O[C@H]([C@@H](O)CO)C(O)=C1[O-].O=C1O[C@H]([C@@H](O)CO)C(O)=C1[O-].[Mg+2] [Mg ascorbate]
PO4 binding [1]: 4 mg/g

Molecule: magnesium lysinate [Mg lysinate]
PO4 binding [1]: 150 mg/g
mg PO4 bound per g Mg or Ca in compound [3]: 1948 mg PO4 per g Mg or Ca
mg PO4 bound per g compound (Table 4, taken from Table 3): 150 mg PO4 per g compound
mg PO4 bound per g Mg or Ca in compound (Table 5, additional results): 1792 mg PO4 per g Mg (or Ca)
mg PO4 bound per g compound (Table 5, additional results): 138 mg PO4 per g compound
phosphate bound by 1 gram of Mg in the salt relative to 1 gram of calcium in PhosLo (Ca acetate) (from Table 4): almost three times as much

Molecule: magnesium aminobutyrate [Mg aminobutyrate]
PO4 binding [1]: 85 mg/g
mg PO4 bound per g compound (Table 5, additional results): 76 mg PO4 per g compound

Molecule: [Mg+2].[OH-].[OH-] [Mg(OH)2, magnesium hydroxide]
PO4 binding [2]: 176.2 mg/g
PO4 binding [1]: 182 mg/g
mg PO4 bound per g Mg or Ca in compound [3]: 436 mg PO4 per g Mg or Ca
mg PO4 bound per g compound (Table 4, taken from Table 3): 182 mg PO4 per g compound
PO4 binding (Table 6, without acid treatment): 179.0 mg/g

Molecule: CC(=O)[O-].CC(=O)[O-].[Mg+2] [Mg acetate]
PO4 binding [1]: 4 mg/g

Further lines, results first:

PO4 binding [1]: 15 mg/g
Molecule: O=C([O-])/C=C\C(=O)[O-].[Mg+2] [Mg maleate]

PO4 binding [1]: 15 mg/g
Molecule: Mg stearate

PO4 binding [1]: 18 mg/g
Molecule: O=C([O-])CCC(=O)[O-].[Mg+2] [Mg succinate]

PO4 binding [1]: 9 mg/g
Molecule: O=S(=O)([O-])[O-].[Mg+2] [Mg sulfate]

PO4 binding [1]: 4 mg/g
Molecule: O=C([O-])c1cccnc1.O=C([O-])c1cccnc1.[Mg+2] [Mg nicotinate]

PO4 binding [2]: 19.0 mg/g
Molecule: O.O.O.O.O.O.O.O=S(=O)([O-])[O-].[Mg+2] [MgSO4•7H2O]

PO4 binding [1]: 15 mg/g
Molecule: CC(O)C(=O)[O-].CC(O)C(=O)[O-].[Mg+2] (stereo not shown) [Mg lactate]

mg PO4 bound per g compound (Table 5, additional results): 29 mg PO4 per g compound
Molecule: O=C([O-])CC(O)C(=O)[O-].[Mg+2] (stereo not shown) [Mg malate]

PO4 binding [1]: 4 mg/g
Molecule: O=C([O-])/C=C/C(=O)[O-].[Mg+2] [Mg fumarate]

PO4 binding [1]: 6 mg/g
Molecule: O=C[O-].O=C[O-].[Mg+2] [Mg formate]

PO4 binding [2]: 16.3 mg/g
PO4 binding [1]: 15 mg/g
Molecule: O=C([O-])CC(O)(CC(=O)[O-])C(=O)[O-].O=C([O-])CC(O)(CC(=O)[O-])C(=O)[O-].[Mg+2].[Mg+2].[Mg+2] [Mg citrate]

PO4 binding [1]: 20 mg/g
Molecule: O=C([O-])c1cc(=O)[nH]c(=O)[nH]1.O=C([O-])c1cc(=O)[nH]c(=O)[nH]1.[Mg+2] [Mg orotate]
